Legend:
Assay in all cases: relative viability (nuclei count vs DMSO), 5 days (fraction); higher = more cells survive
[1] = test system: A-427
Method in brief: (§1)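 Lung cancer cell lines were pin-tool dosed in 1536-well plates on the day after seeding, with either a lone drug or a fixed anchor-drug dose plus five library-drug doses (not always all listed) in √10 steps. Nuclei were counted on 4× images after 5 days. Relative viability is the ratio of treated-well to vehicle-well nuclei counts, with each value a median of duplicate plates.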

[2] = test system: CAL-12T
Method in brief: as §1

[3] = test system: COR-L 105
Method in brief: as §1

[4] = test system: EMC-BAC-2
Method in brief: as §1

[5] = test system: HARA
Method in brief: as §1

[6] = test system: HCC-366
Method in brief: as §1

[7] = test system: HCC-827
Method in brief: as §1

[8] = test system: HOP-62
Method in brief: as §1

[9] = test system: LCLC-103H
Method in brief: as §1

[10] = test system: NCI-H1395
Method in brief: as §1

[11] = test system: NCI-H1437
Method in brief: as §1

[12] = test system: NCI-H1755
Method in brief: as §1

[13] = test system: NCI-H1792
Method in brief: as §1

[14] = test system: NCI-H1915
Method in brief: as §1

[15] = test system: NCI-H2009
Method in brief: as §1

[16] = test system: NCI-H2228
Method in brief: as §1

[17] = test system: NCI-H23
Method in brief: as §1

[18] = test system: NCI-H460
Method in brief: as §1

[19] = test system: NCI-H727
Method in brief: as §1

[20] = test system: SK-LU-1
Method in brief: as §1

[21] = test system: SW 1573
Method in brief: as §1

COc1cc2nccc(Oc3ccc(NC(=O)Nc4cc(C)on4)c(Cl)c3)c2cc1OC [Tivozanib] + C[C@]1(O)C[C@@H](c2nc(-c3ccc4ccc(-c5ccccc5)nc4c3)c3c(N)nccn32)C1 [Linsitinib] (partner 1 µM)
relative viability ([1]; first compound 0.005 µM): 1.09
relative viability ([1]; first compound 0.01581 µM): 1.1
relative viability ([1]; first compound 0.05 µM): 1.23
relative viability ([1]; first compound 0.1581 µM): 0.987
relative viability ([1]; first compound 0.5 µM): 1.07
relative viability ([2]; first compound 0.005 µM): 0.761
relative viability ([2]; first compound 0.01581 µM): 0.666
relative viability ([2]; first compound 0.05 µM): 0.717
relative viability ([2]; first compound 0.1581 µM): 0.713
relative viability ([2]; first compound 0.5 µM): 0.816
relative viability ([3]; first compound 0.01581 µM): 1.25
relative viability ([3]; first compound 0.05 µM): 1.02
relative viability ([3]; first compound 0.1581 µM): 1.02
relative viability ([3]; first compound 0.5 µM): 0.904
relative viability ([4]; first compound 0.005 µM): 0.847
relative viability ([4]; first compound 0.01581 µM): 0.787
relative viability ([4]; first compound 0.05 µM): 0.844
relative viability ([4]; first compound 0.1581 µM): 0.782
relative viability ([4]; first compound 0.5 µM): 0.821
relative viability ([5]; first compound 0.005 µM): 0.915
relative viability ([5]; first compound 0.01581 µM): 0.838
relative viability ([5]; first compound 0.05 µM): 1.11
relative viability ([5]; first compound 0.1581 µM): 1.01
relative viability ([5]; first compound 0.5 µM): 0.99
relative viability ([6]; first compound 0.005 µM): 0.475
relative viability ([6]; first compound 0.01581 µM): 0.57
relative viability ([6]; first compound 0.05 µM): 0.712
relative viability ([6]; first compound 0.1581 µM): 0.516
relative viability ([6]; first compound 0.5 µM): 0.606
relative viability ([7]; first compound 0.005 µM): 0.969
relative viability ([7]; first compound 0.01581 µM): 0.942
relative viability ([7]; first compound 0.05 µM): 0.944
relative viability ([7]; first compound 0.1581 µM): 1.04
relative viability ([7]; first compound 0.5 µM): 0.965
relative viability ([8]; first compound 0.005 µM): 0.87
relative viability ([8]; first compound 0.01581 µM): 0.929
relative viability ([8]; first compound 0.05 µM): 1.16
relative viability ([8]; first compound 0.1581 µM): 0.932
relative viability ([8]; first compound 0.5 µM): 0.988
relative viability ([9]; first compound 0.005 µM): 1.01
relative viability ([9]; first compound 0.01581 µM): 0.959
relative viability ([9]; first compound 0.05 µM): 1.07
relative viability ([9]; first compound 0.1581 µM): 1.21
relative viability ([9]; first compound 0.5 µM): 1.12
relative viability ([10]; first compound 0.005 µM): 0.99
relative viability ([10]; first compound 0.01581 µM): 1.1
relative viability ([10]; first compound 0.05 µM): 1.26
relative viability ([10]; first compound 0.1581 µM): 1.09
relative viability ([10]; first compound 0.5 µM): 0.827
relative viability ([11]; first compound 0.005 µM): 1.02
relative viability ([11]; first compound 0.01581 µM): 0.989
relative viability ([11]; first compound 0.05 µM): 0.969
relative viability ([11]; first compound 0.1581 µM): 0.947
relative viability ([11]; first compound 0.5 µM): 1
relative viability ([12]; first compound 0.005 µM): 0.968
relative viability ([12]; first compound 0.01581 µM): 0.918
relative viability ([12]; first compound 0.05 µM): 1.05
relative viability ([12]; first compound 0.1581 µM): 1.02
relative viability ([12]; first compound 0.5 µM): 0.96
relative viability ([13]; first compound 0.005 µM): 0.535
relative viability ([13]; first compound 0.01581 µM): 0.581
relative viability ([13]; first compound 0.05 µM): 0.534
relative viability ([13]; first compound 0.1581 µM): 0.698
relative viability ([13]; first compound 0.5 µM): 0.592
relative viability ([14]; first compound 0.005 µM): 1.08
relative viability ([14]; first compound 0.01581 µM): 1.14
relative viability ([14]; first compound 0.05 µM): 1.12
relative viability ([14]; first compound 0.1581 µM): 1.07
relative viability ([14]; first compound 0.5 µM): 1.05
relative viability ([15]; first compound 0.005 µM): 1.15
relative viability ([15]; first compound 0.01581 µM): 1.19
relative viability ([15]; first compound 0.05 µM): 1.23
relative viability ([15]; first compound 0.1581 µM): 1.25
relative viability ([15]; first compound 0.5 µM): 1.23
relative viability ([16]; first compound 0.005 µM): 0.504
relative viability ([16]; first compound 0.01581 µM): 0.683
relative viability ([16]; first compound 0.05 µM): 0.697
relative viability ([16]; first compound 0.1581 µM): 0.569
relative viability ([16]; first compound 0.5 µM): 0.868
relative viability ([17]; first compound 0.005 µM): 0.521
relative viability ([17]; first compound 0.01581 µM): 0.534
relative viability ([17]; first compound 0.05 µM): 0.64
relative viability ([17]; first compound 0.1581 µM): 0.317
relative viability ([17]; first compound 0.5 µM): 0.534
relative viability ([18]; first compound 0.005 µM): 0.783
relative viability ([18]; first compound 0.01581 µM): 0.806
relative viability ([18]; first compound 0.05 µM): 0.858
relative viability ([18]; first compound 0.1581 µM): 0.871
relative viability ([18]; first compound 0.5 µM): 0.733
relative viability ([19]; first compound 0.005 µM): 0.304
relative viability ([19]; first compound 0.01581 µM): 0.256
relative viability ([19]; first compound 0.05 µM): 0.244
relative viability ([19]; first compound 0.5 µM): 0.357
relative viability ([20]; first compound 0.005 µM): 0.979
relative viability ([20]; first compound 0.01581 µM): 1.08
relative viability ([20]; first compound 0.05 µM): 1.34
relative viability ([20]; first compound 0.1581 µM): 0.813
relative viability ([20]; first compound 0.5 µM): 0.938
relative viability ([21]; first compound 0.005 µM): 0.896
relative viability ([21]; first compound 0.01581 µM): 0.826
relative viability ([21]; first compound 0.05 µM): 0.921
relative viability ([21]; first compound 0.1581 µM): 0.819
relative viability ([21]; first compound 0.5 µM): 0.86

From the supplement of paper PMC10307832
